Source: PubChem BioAssay AID330 (DTP/NCI, 2004)
“And” between values parts separate entries of the source, which are not always exact repeats. Equal entries are not always repeated. Inconclusive results and toxic doses are left out. Peptide text beside a SMILES is read from it. * marks the point of attachment. Trt = c1ccc(C(c2ccccc2)(c2ccccc2)*)cc1; Bn = c1ccc(C*)cc1

Test system: P388 leukemia ip, CD2F1 mice, survival T/C
Assay: NCI In Vivo Anticancer Drug Screen. Data for tumor model P388 Leukemia (intraperitoneal) in CD2F1 (CDF1) mice
Settings: endpoint: median survival time, higher = longer survival
In short: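 Mice carrying the transplanted tumor received test compound or vehicle. Survival was recorded in each group, and the value is the treated-group measurement divided by that of the vehicle-treated control group.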

[1] = dose: 50.0 mg/kg/injection, schedule: Q01DX005 (ip), vehicle: saline with Tween-80
[2] = dose: 100.0 mg/kg/injection, schedule: Q01DX005 (ip), vehicle: saline with Tween-80
[3] = dose: 200.0 mg/kg/injection, schedule: Q01DX005 (ip), vehicle: saline with Tween-80
[4] = dose: 50.0 mg/kg/injection, schedule: Q01DX009 (ip), vehicle: Klucel (hydroxypropylcellulose) (HPC)
[5] = dose: 100.0 mg/kg/injection, schedule: Q01DX009 (ip), vehicle: Klucel (hydroxypropylcellulose) (HPC)
[6] = dose: 200.0 mg/kg/injection, schedule: Q01DX009 (ip), vehicle: Klucel (hydroxypropylcellulose) (HPC)
[7] = dose: 12.5 mg/kg/injection, schedule: Q01DX009 (ip), vehicle: saline
[8] = dose: 25.0 mg/kg/injection, schedule: Q01DX009 (ip), vehicle: saline
[9] = dose: 50.0 mg/kg/injection, schedule: Q01DX009 (ip), vehicle: saline with Tween-80
[10] = dose: 50.0 mg/kg/injection, schedule: Q01DX009 (ip), vehicle: saline
[11] = dose: 25.0 mg/kg/injection, schedule: Q01DX009 (ip), vehicle: Klucel (hydroxypropylcellulose) (HPC)
[12] = dose: 12.5 mg/kg/injection, schedule: Q01DX009 (ip), vehicle: other
[13] = dose: 25.0 mg/kg/injection, schedule: Q01DX009 (ip), vehicle: other

Structure (SMILES): CCCCCCCCCCCC(=O)NCC(=O)NC1CC(OC2CC(O)(C(C)=O)Cc3c(O)c4c(c(O)c32)C(=O)c2c(OC)cccc2C4=O)OC(C)C1O (stereo not drawn)
- T/C (dose: 0.75 mg/kg/injection, schedule: Q01DX009 (ip), vehicle: other): 107 % of control
- T/C (dose: 1.5 mg/kg/injection, schedule: Q01DX009 (ip), vehicle: other): 108 % of control
- T/C (dose: 3.0 mg/kg/injection, schedule: Q01DX009 (ip), vehicle: other): 112 % of control
- T/C (dose: 6.0 mg/kg/injection, schedule: Q01DX009 (ip), vehicle: other): 116 % of control
- T/C (dose: 12.0 mg/kg/injection, schedule: Q01DX009 (ip), vehicle: other): 99 % of control

Structure (SMILES): Cc1cc(Cl)ccc1NC(=O)C1C(=O)CC(C)(C)CC1=O
- T/C [1]: 93 % of control
- T/C [2]: 101 % of control
- T/C [3]: 111 % of control

Structure (SMILES): COc1ccc(C2CC(=O)N(c3nc(C)cc(C)n3)C(=O)C2)cc1
- T/C (dose: 100.0 mg/kg/injection, schedule: Q04DX003 (ip), vehicle: saline): 96 % of control
- T/C (dose: 200.0 mg/kg/injection, schedule: Q04DX003 (ip), vehicle: saline): 102 % of control
- T/C (dose: 400.0 mg/kg/injection, schedule: Q04DX003 (ip), vehicle: saline): 100 % of control

Structure (SMILES): COc1ccc(C2C(C#N)=C(N)Oc3c2c(C)nn3-c2ccccc2)cc1 (stereo not drawn)
- T/C [4]: 89 % of control and 92 % of control
- T/C [5]: 99 % of control and 96 % of control
- T/C [6]: 90 % of control and 97 % of control

Structure (SMILES): CC(=O)O/C1=C\CCCCCCCCCC1
- T/C [1]: 95 % of control
- T/C [2]: 90 % of control
- T/C [3]: 110 % of control

Structure (SMILES): CSc1ccccc1[As](c1ccccc1)c1ccccc1SC
- T/C [4]: 90 % of control
- T/C [5]: 92 % of control
- T/C [6]: 95 % of control

Structure (SMILES): CCC1CN2CCc3cc(OC)c(OC)cc3C2CC1Cl (stereo not drawn)
- T/C [7]: 90 % of control
- T/C [8]: 90 % of control
- T/C [9]: 101 % of control
- T/C [10]: 96 % of control

Structure (SMILES): CC12CC3CC(C1)CC(Br)(C3)C2
- T/C [4]: 103 % of control and 111 % of control
- T/C [5]: 100 % of control
- T/C [6]: 100 % of control

Structure (SMILES): Cc1ccc(OP(=O)(Oc2ccc(C)cc2)Oc2ccc(C)cc2)cc1.Cc1ccc(OP(=O)(Oc2ccc(C)cc2)Oc2ccc(C)cc2)cc1.Cc1ccc(OP(=O)(Oc2ccc(C)cc2)Oc2ccc(C)cc2)cc1.Cc1ccc(OP(=O)(Oc2ccc(C)cc2)Oc2ccc(C)cc2)cc1.[Cu+2].[O-][Cl+3]([O-])([O-])O
- T/C (dose: 50.0 mg/kg/injection, schedule: Q01DX001 (ip), vehicle: Klucel (hydroxypropylcellulose) (HPC)): 96 % of control
- T/C (dose: 100.0 mg/kg/injection, schedule: Q01DX001 (ip), vehicle: Klucel (hydroxypropylcellulose) (HPC)): 94 % of control
- T/C (dose: 200.0 mg/kg/injection, schedule: Q01DX001 (ip), vehicle: Klucel (hydroxypropylcellulose) (HPC)): 92 % of control

Structure (SMILES): COc1ccc(N=C([Se])CCC(C)C)cc1
- T/C (dose: 6.25 mg/kg/injection, schedule: Q01DX009 (ip), vehicle: Klucel (hydroxypropylcellulose) (HPC)): 111 % of control
- T/C (dose: 12.5 mg/kg/injection, schedule: Q01DX009 (ip), vehicle: Klucel (hydroxypropylcellulose) (HPC)): 106 % of control
- T/C [11]: 108 % of control

Structure (SMILES): CC(=O)c1cccc(NC(=O)Nc2nccs2)c1
- T/C [11]: 102 % of control
- T/C [4]: 110 % of control
- T/C [5]: 101 % of control
- T/C [6]: 105 % of control

Structure (SMILES): O=C1/C(=C/c2ccc(O)cc2)CCC/C1=C\c1ccc(O)cc1
- T/C (dose: 60.0 mg/kg/injection, schedule: Q01DX005 (ip), vehicle: saline with Tween-80): 97 % of control
- T/C (dose: 120.0 mg/kg/injection, schedule: Q01DX005 (ip), vehicle: saline with Tween-80): 93 % of control
- T/C (dose: 240.0 mg/kg/injection, schedule: Q01DX005 (ip), vehicle: saline with Tween-80): 92 % of control

Structure (SMILES): C=CC1=C(C)C2=NC1=CC1=NC(=CC3=C(C)C4=C(O)C(C(=O)O)C(=C5NC(=C2)C(C)C5CCC(=O)O)C4=N3)C(CC)=C1C (stereo not drawn)
- T/C (dose: 50.0 mg/kg/injection, schedule: Q01DX005 (ip), vehicle: suspension in saline): 98 % of control
- T/C (dose: 100.0 mg/kg/injection, schedule: Q01DX005 (ip), vehicle: suspension in saline): 103 % of control
- T/C (dose: 200.0 mg/kg/injection, schedule: Q01DX005 (ip), vehicle: suspension in saline): 98 % of control

Structure (SMILES): O=S(=O)(Nc1ccc(CCc2ccc(NS(=O)(=O)c3ccccc3)cc2)cc1)c1ccccc1
- T/C (dose: 100.0 mg/kg/injection, schedule: Q01DX001 (ip), vehicle: saline with Tween-80): 95 % of control
- T/C (dose: 200.0 mg/kg/injection, schedule: Q01DX001 (ip), vehicle: saline with Tween-80): 91 % of control
- T/C (dose: 400.0 mg/kg/injection, schedule: Q01DX001 (ip), vehicle: saline with Tween-80): 91 % of control

Structure (SMILES): COc1cccc2c1C(=O)c1c(O)c3c(c(O)c1C2=O)CC(O)(C(=O)CBr)CC3OC(C)=O (stereo not drawn)
- T/C (dose: 1.56 mg/kg/injection, schedule: Q01DX009 (ip), vehicle: other): 109 % of control
- T/C (dose: 3.13 mg/kg/injection, schedule: Q01DX009 (ip), vehicle: other): 103 % of control
- T/C (dose: 6.25 mg/kg/injection, schedule: Q01DX009 (ip), vehicle: other): 105 % of control
- T/C [12]: 113 % of control
- T/C [13]: 109 % of control

Structure (SMILES): CN(C)CCCCNc1ccc(NCCCCN(C)C)c2c1C(=O)c1c(O)ccc(O)c1C2=O
- T/C [7]: 100 % of control
- T/C [8]: 108 % of control
- T/C [10]: 106 % of control

Structure (SMILES): Cc1c(-c2ccccc2)ccnc1/C=N/NC(=S)NCCCN(C)C
- T/C [12]: 105 % of control
- T/C [13]: 114 % of control
- T/C (dose: 50.0 mg/kg/injection, schedule: Q01DX009 (ip), vehicle: other): 101 % of control and 112 % of control

Structure (SMILES): O=c1[nH]cc(N(CCCl)CCCl)c(=O)[nH]1
- T/C (dose: 0.05 mg/kg/injection, schedule: Q01DX009 (ip), vehicle: saline with Tween-80): 109 % of control
- T/C (dose: 0.08 mg/kg/injection, schedule: Q01DX009 (ip), vehicle: saline with Tween-80): 109 % of control
- T/C (dose: 0.39 mg/kg/injection, schedule: Q01DX009 (ip), vehicle: saline with Tween-80): 181 % of control
- T/C (dose: 0.65 mg/kg/injection, schedule: Q01DX009 (ip), vehicle: saline with Tween-80): 181 % of control
- T/C (dose: 1.1 mg/kg/injection, schedule: Q01DX009 (ip), vehicle: saline with Tween-80): 236 % of control
- T/C (dose: 1.8 mg/kg/injection, schedule: Q01DX009 (ip), vehicle: saline with Tween-80): 227 % of control
- T/C (dose: 3.0 mg/kg/injection, schedule: Q01DX009 (ip), vehicle: saline with Tween-80): 118 % of control

Structure (SMILES): O=C1CNC(=O)N1CN1CCOCC1
- T/C (dose: 25.0 mg/kg/injection, schedule: Q01DX005 (ip), vehicle: Klucel (hydroxypropylcellulose) (HPC)): 107 % of control
- T/C (dose: 50.0 mg/kg/injection, schedule: Q01DX005 (ip), vehicle: Klucel (hydroxypropylcellulose) (HPC)): 107 % of control and 111 % of control
- T/C (dose: 100.0 mg/kg/injection, schedule: Q01DX005 (ip), vehicle: Klucel (hydroxypropylcellulose) (HPC)): 118 % of control

Structure (SMILES): CCN(CC)CCOc1ccc(C)c(C)c1
- T/C [1]: 106 % of control
- T/C [2]: 103 % of control

Structure (SMILES): COc1ccc(C(=O)C(Br)C(Br)C(=O)O)cc1 (stereo not drawn)
- T/C (dose: 12.5 mg/kg/injection, schedule: Q01DX009 (ip), vehicle: saline with Tween-80): 114 % of control
- T/C (dose: 25.0 mg/kg/injection, schedule: Q01DX009 (ip), vehicle: saline with Tween-80): 114 % of control
- T/C [9]: 107 % of control and 121 % of control

Structure (SMILES): C=C(C)C(=O)OC1CC2=CC(CC3(C)OC3C3OC(=O)C(=C)C13)OC2=O (stereo not drawn)
- T/C (dose: 2.25 mg/kg/injection, schedule: Q01DX009 (ip), vehicle: Klucel (hydroxypropylcellulose) (HPC)): 100 % of control
- T/C (dose: 2.3 mg/kg/injection, schedule: Q01DX009 (ip), vehicle: Klucel (hydroxypropylcellulose) (HPC)): 103 % of control
- T/C (dose: 4.5 mg/kg/injection, schedule: Q01DX009 (ip), vehicle: Klucel (hydroxypropylcellulose) (HPC)): 100 % of control and 97 % of control
- T/C (dose: 9.0 mg/kg/injection, schedule: Q01DX009 (ip), vehicle: Klucel (hydroxypropylcellulose) (HPC)): 100 % of control and 111 % of control
- T/C (dose: 18.0 mg/kg/injection, schedule: Q01DX009 (ip), vehicle: Klucel (hydroxypropylcellulose) (HPC)): 114 % of control and 115 % of control

Structure (SMILES): COC(=O)C(CSC(c1ccccc1)(c1ccccc1)c1ccccc1)NC(=O)C(CSCc1ccccc1)NC(C)=O (stereo not drawn) (Ac-Cys(Bn)-Cys(Trt)-OMe; configuration not given here)
- T/C (dose: 4.0 mg/kg/injection, schedule: Q01DX009 (ip), vehicle: water): 96 % of control
- T/C (dose: 8.0 mg/kg/injection, schedule: Q01DX009 (ip), vehicle: water): 104 % of control
- T/C (dose: 16.0 mg/kg/injection, schedule: Q01DX009 (ip), vehicle: water): 101 % of control
- T/C (dose: 32.0 mg/kg/injection, schedule: Q01DX009 (ip), vehicle: water): 95 % of control
- T/C (dose: 64.0 mg/kg/injection, schedule: Q01DX009 (ip), vehicle: water): 95 % of control
- T/C (dose: 128.0 mg/kg/injection, schedule: Q01DX009 (ip), vehicle: water): 90 % of control
